Assay results published in US7115604B2, “Method for treating erectile dysfunction” (Orion Corporation, priority 2000, dated 2006).

Tested on: NYHA III heart failure patients, who had not had erections for several years
Assay: Clinical data: levosimendan infusion in heart failure patients with erectile dysfunction
Type: in vivo, man
Method: Clinical Data Two NYHA III heart failure patients, who had not had erections for several years were treated with levosimendan. Patient I was exposed to 0.05 μg/kg/min continuous infusion of levosimendan for 7 days.

[1] = Patient I, 0.05 μg/kg/min continuous infusion for 7 days

Question: `CC1CC(=O)NN=C1c1ccc(NN=C(C#N)C#N)cc1` (single isomer, unassigned; (-)) [levosimendan, (−)-[[4-(1,4,5,6-tetrahydro-4-methyl-6-oxo-3-pyridazinyl)phenyl]hydrazono]propanedinitrile] was tested. Which “erections during the study” value [1] did it give?
Answer: The value was “erections in the mornings during the whole study”.

Question: And the “time to reported erections after starting the infusion” value [1]?
Answer: The value was 1 days.

Question: What about the erections reported (Patient II, 0.1 μg/kg/min continuous infusion for 2 days) of the same compound?
Answer: Its erections reported is “reported erections”.
